Test results as given in patent US20240091366A1, “NOVEL ACID-SENSITIVE APTAMER TRIPTOLIDE CONJUGATE AND APPLICATIONS” (priority 2022, published 2024).
Where “and” joins values, the source holds several entries; their conditions need not be identical. Identical values can stand only once.

How the values were obtained:
[1] = test system: human embryonic kidney cells HEK293; test: MTT assay, cytotoxicity on normal cells; format: cell-based; details: 48 h, samples 1-3
Experimental: (§1) The same materials as those in Part II above are not repeated here, in addition to the following: human normal hepatocytes LO2, human embryonic kidney cells HEK293 were purchased from the Shanghai Cell Bank of the Chinese Academy of Sciences and preserved in our laboratory.
(§2) Take the […] LO2 and HEK293 cell lines from the liquid nitrogen tank, place them in a 37° C. water bath, wait for the frozen cells to melt into cell suspension, centrifuge the cells at 1000 r/min for 3 min, discard the supernatant, add 1 ml of fresh complete medium containing 10% fetal bovine serum and 1% double antibody to mix the cells, then add 5 ml of medium, gently and repeatedly blowing the cells with a pipette gun to make them mix well. Then add 5 ml of medium, blow the cells gently and repeatedly with a pipette gun to mix them well, and finally transfer the cell suspension to a […] and label the cell name, cell number, date of resuscitation and the operator's name, and place it in a cell culture incubator for cultivation. (HEK293 cell line was cultured with DMEM medium, LO2 cell line was cultured with RPMI1640 medium)
(§3) Take LO2 and HEK293 cells with good growth status, remove the medium, add 1 ml of sterile PBS to wash, add 1.5 ml of trypsin to digest the cells, about 2 min later the cells become round and fall off, add 1.5 ml of medium to terminate the digestion, transfer it to centrifugal tube, centrifuge at 1000 r/min for 3 min, discard the supernatant, add 1 ml of fresh medium to resuspend, then add fresh medium for 1:3 distribution to other culture dishes, and label the date of transmission and the number of generations. Place in the cell culture incubator for cultivation.
(§4) Take LO2 and HEK293 cells with good growth status, by the same operation as the cell passaging experiment, after cell resuspension, cell counting with hemocyte counting plate, with 3000 cells/well, plant in 96-well plate, after 24 h of cell culture, remove the original medium, add medium containing different concentrations of drugs and continue to cultivate for 48 hours. After 24 h of cell culture, the original medium was removed and the medium containing different concentrations of drugs was added to continue the culture for 48 hours. […] The above steps were repeated three times.

[2] = test system: human normal hepatocytes LO2; test: MTT assay, cytotoxicity on normal cells; format: cell-based; details: 48 h, 48 h, samples 1-3
Experimental: as §1, §2, §3, §4

[3] = test system: colon cancer cells HCT116; test: In vivo antitumor activity, colon cancer xenograft in nude mice; design: species or system mouse; Tumor weight: unit not given here; details: HCT116 model, once every 2 days, 8 doses
From the text: (§5) The following are the in vivo activity studies conducted in different tumor-bearing mice:
(§6) A PBS negative control group was set up.

[4] = test system: lung cancer cell line A549; test: In vivo antitumor activity, lung cancer xenograft in nude mice; design: species or system mouse; Tumor weight: unit not given here; details: A549 model, once every 2 days, 8 doses
From the text: as §5, §6

[5] = Body weight during administration, colon cancer model; details: mouse, in vivo
Experimental: (§7) Female nude mice were reared for 6-7 weeks under standard environment, colon cancer cells HCT116 were suspended in serum-free medium, and each mouse was inoculated with 5*10^6 tumor cells. When the tumor volume reached 50-100 mm^3, the mice were randomly divided into 4 groups, and were injected with aptamer triptolide conjugate, triptolide, and aptamer by tail vein, respectively, 12 mice in each group. A PBS negative control group was set up. […] The drugs were administered once every 2 days for 8 consecutive doses, and the experiment was ended 24 hours after the last dose. At the end of the experiment, the animals were executed by breaking the cervical vertebrae, and the tumors were stripped and weighed to calculate the tumor growth inhibition rate of the drug. The t-test was used to compare the tumor weight, tumor volume, RTV and other indexes of the animals in each group.

[6] = Body weight during administration, lung cancer model; details: mouse, in vivo
Experimental: as §7, with “Experimental protocol: Female” for “Female”, “lung” for “colon”, “cell line A549” for “cells HCT116”, “6*10^6” for “5*10^6”

CC(C)[C@]12O[C@H]1[C@@H]1O[C@]13[C@]1(O[C@H]1C[C@H]1C4=C(CC[C@@]13C)C(=O)OC4)[C@@H]2O [TP, Triptolide]
cell proliferation inhibition rate ([1]; HEK293, 3.1 nM, 0.0031 µM): 30.4489 and 32.7054 | cell proliferation inhibition rate ([1]; HEK293, 6.3 nM, 0.0063 µM): 53.1149 and 51.3265 | cell proliferation inhibition rate ([1]; HEK293, 12.5 nM, 0.0125 µM): 70.4830 and 71.1686 | cell proliferation inhibition rate ([1]; HEK293, 25.0 nM, 0.025 µM): 73.0686 and 75.7495 | cell proliferation inhibition rate ([1]; HEK293, 50.0 nM, 0.05 µM): 81.0372 | cell proliferation inhibition rate ([1]; HEK293, 100.0 nM, 0.1 µM): 94.3972 and 99.2908 | cell proliferation inhibition rate ([1]; HEK293, 200.0 nM, 0.2 µM): 95.3901 and 100.6383 | inhibition at 0.0031 µM ([1]; Homo sapiens, HEK293, 48 h, HEK293, 3.1 nM, read-out: cell proliferation inhibition rate): 35.1% | inhibition at 0.0063 µM ([1]; Homo sapiens, HEK293, 48 h, HEK293, 6.3 nM, read-out: cell proliferation inhibition rate): 59.9% | inhibition at 0.0125 µM ([1]; Homo sapiens, HEK293, 48 h, HEK293, 12.5 nM, read-out: cell proliferation inhibition rate): 69.3% | inhibition at 0.025 µM ([1]; Homo sapiens, HEK293, 48 h, HEK293, 25.0 nM, read-out: cell proliferation inhibition rate): 79.5% | inhibition at 0.05 µM ([1]; Homo sapiens, HEK293, 48 h, HEK293, 50.0 nM, read-out: cell proliferation inhibition rate): 89.5% | inhibition at 0.1 µM ([1]; Homo sapiens, HEK293, 48 h, HEK293, 100.0 nM, read-out: cell proliferation inhibition rate): 99.9% | inhibition at 0.2 µM ([1]; Homo sapiens, HEK293, 48 h, HEK293, 200.0 nM, read-out: cell proliferation inhibition rate): 98.3% | inhibition at 0.0031 µM ([2]; Homo sapiens, Hepatocyte, LO2, 3.1 nM, read-out: cell proliferation inhibition rate): 21.4% | inhibition at 0.0063 µM ([2]; Homo sapiens, Hepatocyte, LO2, 6.3 nM, read-out: cell proliferation inhibition rate): 32% | inhibition at 0.0125 µM ([2]; Homo sapiens, Hepatocyte, LO2, 12.5 nM, read-out: cell proliferation inhibition rate): 66.4% | inhibition at 0.025 µM ([2]; Homo sapiens, Hepatocyte, LO2, 25.0 nM, read-out: cell proliferation inhibition rate): 74.1% | inhibition at 0.05 µM ([2]; Homo sapiens, Hepatocyte, LO2, 50.0 nM, read-out: cell proliferation inhibition rate): 88.7% | inhibition at 0.1 µM ([2]; Homo sapiens, Hepatocyte, LO2, 100.0 nM, read-out: cell proliferation inhibition rate): 96.3% | inhibition at 0.2 µM ([2]; Homo sapiens, Hepatocyte, LO2, 200.0 nM, read-out: cell proliferation inhibition rate): 94% | cell proliferation inhibition rate ([2]; LO2, 3.1 nM, 0.0031 µM): 23.3551 and 17.9111 | cell proliferation inhibition rate ([2]; LO2, 6.3 nM, 0.0063 µM): 40.8401 and 42.6158 | cell proliferation inhibition rate ([2]; LO2, 12.5 nM, 0.0125 µM): 59.2076 and 65.5783 | cell proliferation inhibition rate ([2]; LO2, 25.0 nM, 0.025 µM): 73.3084 and 73.3954 | cell proliferation inhibition rate ([2]; LO2, 50.0 nM, 0.05 µM): 87.4474 and 84.6990 | cell proliferation inhibition rate ([2]; LO2, 100.0 nM, 0.1 µM): 97.7552 and 82.0308 | cell proliferation inhibition rate ([2]; LO2, 200.0 nM, 0.2 µM): 99.8060 and 96.6312 | RTV ([3]; 10 μM 100 μL tail vein): 23.31 ± 0.31 | T/C (%) ([3]; 10 μM 100 μL tail vein): 65.57% | Tumor inhibition rate (%) ([3]; 10 μM 100 μL tail vein): 25.80% | Tumor weight ([3]; 10 μM 100 μL tail vein): 2.31 ± 0.24 | RTV ([3]; 30 μM 100 μL tail vein): 16.68 ± 0.19 | T/C (%) ([3]; 30 μM 100 μL tail vein): 46.92% | Tumor inhibition rate (%) ([3]; 30 μM 100 μL tail vein): 45.16% | Tumor weight ([3]; 30 μM 100 μL tail vein): 1.76 ± 0.13 | RTV ([3]; 50 μM 100 μL tail vein): 10.09 ± 0.28 | T/C (%) ([3]; 50 μM 100 μL tail vein): 28.38% | Tumor inhibition rate (%) ([3]; 50 μM 100 μL tail vein): 64.51% | Tumor weight ([3]; 50 μM 100 μL tail vein): 1.11 ± 0.25 | RTV ([4]; 10 μM tail vein): 26.1 ± 0.09 | T/C (%) ([4]; 10 μM tail vein): 51.81% | Tumor inhibition rate (%) ([4]; 10 μM tail vein): 27.27% | Tumor weight ([4]; 10 μM tail vein): 2.47 ± 0.08 | RTV ([4]; 30 μM tail vein): 17.91 ± 0.27 | T/C (%) ([4]; 30 μM tail vein): 31.59% | Tumor inhibition rate (%) ([4]; 30 μM tail vein): 48.48% | Tumor weight ([4]; 30 μM tail vein): 1.79 ± 0.19 | RTV ([4]; 50 μM tail vein): 10.92 ± 0.15 | T/C (%) ([4]; 50 μM tail vein): 89.93% | Tumor inhibition rate (%) ([4]; 50 μM tail vein): 63.64% | Tumor weight ([4]; 50 μM tail vein): 1.29 ± 0.27 | body weights of mice [5]: basically maintained in the tolerable range of animal toxicity and side-effects | body weights of mice [6]: basically maintained in the tolerable range of animal toxicity and side-effects
